Assay results published in the supplement of paper PMC10307832.

Columns and labels:
Assay in all cases: relative viability (nuclei count vs DMSO), 5 days (fraction); higher = more cells survive
AZ23 = compound: CC(C)Oc1cc(Nc2nc(N[C@@H](C)c3ccc(F)cn3)ncc2Cl)n[nH]1 [AZ23]
Procedure, shortened: (§1)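 Viability was read as treated-well nuclei divided by vehicle-well nuclei, using the median across plates. Lung cancer cell lines in 1536-well plates were kept overnight at 37 °C, pinned with five √10-spaced library-drug doses, and after 5 days were Hoechst-stained, imaged at 4× and counted in MetaXpress. Plates passed only with control CV below 25% and at least one doubling.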

HG-5-88-01 = compound: CC(C)S(=O)(=O)C1=CC=CC=C1NC2=NC(=NC(=C2Cl)N)NC3=C(C=C(C=C3)N4CCC(CC4)C(=O)N)OC [HG-5-88-01]
Procedure, shortened: as §1

Embelin = compound: CCCCCCCCCCCC1=C(O)C(=O)C=C(O)C1=O [Embelin]
Procedure, shortened: as §1

[1] = compound: C[C@@H]1CN(CC(=O)Nc2ccc3c(c2)Cc2cccc(-c4cc(=O)cc(N5CCOCC5)o4)c2S3)C[C@H](C)O1
Procedure, shortened: as §1

Vatalanib = compound: Clc1ccc(Nc2nnc(Cc3ccncc3)c3ccccc23)cc1 [Vatalanib]
Procedure, shortened: as §1

Cell Line	relative viability (AZ23; 0.01 µM)	relative viability (AZ23; 0.03162 µM)	relative viability (AZ23; 0.3162 µM)	relative viability (HG-5-88-01; 0.04 µM)	relative viability (HG-5-88-01; 0.1265 µM)	relative viability (HG-5-88-01; 0.4 µM)	relative viability (HG-5-88-01; 1.265 µM)	relative viability (HG-5-88-01; 4 µM)	relative viability (Embelin; 0.08 µM)	relative viability (Embelin; 0.8 µM)	relative viability (Embelin; 2.53 µM)	relative viability (Embelin; 8 µM)	relative viability ([1]; 0.04 µM)	relative viability ([1]; 0.1265 µM)	relative viability ([1]; 0.4 µM)	relative viability ([1]; 4 µM)	relative viability (Vatalanib; 0.04 µM)	relative viability (Vatalanib; 0.1265 µM)	relative viability (Vatalanib; 0.4 µM)	relative viability (Vatalanib; 1.265 µM)	relative viability (Vatalanib; 4 µM)
NCI-H3122	1.12	1.13	1.06	0.865	0.585	0.254	0.236	0.169	0.986	1.05	1.01	1.07	1.05	0.993	1.03	0.883	1.01	0.975	1.02	0.959	0.98
PC-3 [JPC-3]	1.08	1.12	1.04	1.08	1.05	0.998	0.749	0.477	1.08	1.05	1.11	0.974	0.976	1.01	1.03	0.986	0.974	0.984	1	1.01	0.988
PC-14	0.748	1.22	1.08	1.05	0.985	0.901	0.735	0.38	0.997	1.15	1	1.06	1	0.943	1.02	0.863	1.01	0.921	0.905	0.904	0.958
RERF-LC-KJ	1.08	0.987	1.03	1.05	0.992	0.975	0.865	0.724	0.978	1.01	1.07	1	1.01	1.01	0.962	0.872	1.02	0.961	1.04	0.857	0.857
